Type in all cases: functional
The test system of assay [1] is B16-F10. As to the kind of experiment: Growth inhibition of mouse B16F10 cells by MTT assay. (Tetrazolium dyes change colour on reduction, which living cells bring about.)
Assay [2] is described as follows: Growth inhibition of human Hs683 cells by MTT assay. The conditions noted are these: Hs 683.
Assay [3] deals with SK-MEL-28. Nature of the assay: Growth inhibition of human SK-MEL-28 cells by MTT assay.
The subject of assay [4] is T98G. As to the kind of experiment: Growth inhibition of human T98G cells by MTT assay.
Assay [5] deals with MCF7. As to the kind of experiment: Growth inhibition of human MCF7 cells by MTT assay.
Assay [6] deals with A549. As to the kind of experiment: Growth inhibition of human A549 cells by MTT assay.

Each structure is given as a SMILES string.

For `C=Cc1cccc2c1N(C)Cc1cc3c(cc1-2)OCO3`, the GI50 in assay [1] is 34 µM; in assay [2], > 100 µM; in assay [3], 59 µM; in assay [4], 89 µM; in assay [5], 82 µM; in assay [6], 54 µM.

For `C#CCCCO[C@H]1[C@H]2c3cc4c(cc3CN3CCC(=C[C@@H]1O[Si](C(C)C)(C(C)C)C(C)C)[C@H]23)OCO4`, the GI50 in assay [1] amounted to 7.6 µM; in assay [2], 33 µM; in assay [3], 28 µM; in assay [4] it was 21 µM; in assay [5] it was 27 µM; in assay [6], 19 µM.

Take `CCO[C@H]1[C@H]2c3cc4c(cc3CN3CCC(=C[C@@H]1OCC)[C@H]23)OCO4`: the GI50 in assay [1] stood at 18 µM; in assay [2] it was 5.9 µM; in assay [3], 35 µM; in assay [4] it was 8.1 µM; in assay [5], 17 µM; in assay [6], 4 µM.

As to `CCCO[C@H]1[C@H]2c3cc4c(cc3CN3CCC(=C[C@@H]1OCCC)[C@H]23)OCO4`, the GI50 in assay [1] came to 13 µM; in assay [2], 8.1 µM; in assay [3], 19 µM; in assay [4], 24 µM; in assay [5], 19 µM; in assay [6], 4.9 µM.

For `C#CCO[C@H]1[C@H]2c3cc4c(cc3CN3CCC(=C[C@@H]1OCC#C)[C@H]23)OCO4`, the GI50 in assay [1] is 28 µM; in assay [2], 27 µM; in assay [3], 52 µM; in assay [4] it was 68 µM; in assay [5], 32 µM; in assay [6], 23 µM.

Take `C#CCO[C@H]1C=C2CCN3Cc4cc5c(cc4[C@H]([C@@H]1O)[C@@H]23)OCO5`: the GI50 in assay [1] is 42 µM; in assay [2], 81 µM; in assay [3], > 100 µM; in assay [4], > 100 µM; in assay [5], > 100 µM; in assay [6], 48 µM.

With `CC(C)=CCO[C@H]1[C@H]2c3cc4c(cc3CN3CCC(=C[C@@H]1OCC=C(C)C)[C@H]23)OCO4`, the GI50 amounted to 5.3 µM in assay [1]; 9.7 µM in assay [2]; 10 µM in assay [3]; 24 µM in assay [4]; 9.5 µM in assay [5]; 4.4 µM in assay [6].

In the case of `C1=C2CCN3Cc4cc5c(cc4[C@H]([C@H](OCC4CCC4)[C@H]1OCC1CCC1)[C@@H]23)OCO5`, the GI50 in assay [1] was determined as 8 µM; in assay [2], 14 µM; in assay [3] it was 22 µM; in assay [4], 18 µM; in assay [5] it was 25 µM; in assay [6], 5.7 µM.

For the compound `O[C@H]1[C@H]2c3cc4c(cc3CN3CCC(=C[C@@H]1OCC1CCC1)[C@H]23)OCO4`, the GI50 in assay [1] came out at 22 µM; in assay [2], 50 µM; in assay [3] it was 41 µM; in assay [4], 50 µM; in assay [5], 37 µM; in assay [6], 27 µM.

In the case of `CO[C@H]1[C@H]2c3cc4c(cc3CN3CCC(=C[C@@H]1O[Si](C(C)C)(C(C)C)C(C)C)[C@H]23)OCO4`, the 50% growth inhibitory concentration (GI50) in assay [1] turned out to be 8.9 µM; in assay [2] it was 41 µM; in assay [3] it was 28 µM; in assay [4], 19 µM; in assay [5], 28 µM; in assay [6], 19 µM.

`CO[C@H]1[C@H]2c3cc4c(cc3CN3CCC(=C[C@@H]1O)[C@H]23)OCO4`: the GI50 is 39 µM in assay [1]; > 100 µM in assay [2]; > 100 µM in assay [3]; 64 µM in assay [4]; > 100 µM in assay [5]; 43 µM in assay [6].

As for `COCCO[C@H]1[C@H]2c3cc4c(cc3CN3CCC(=C[C@@H]1OCCOC)[C@H]23)OCO4`, the GI50 in assay [1] is 38 µM; in assay [2], > 100 µM; in assay [3] it was 68 µM; in assay [4] it was 33 µM; in assay [5], 44 µM; in assay [6], 29 µM.

Regarding `COCCO[C@H]1C=C2CCN3Cc4cc5c(cc4[C@H]([C@@H]1O)[C@@H]23)OCO5`, the GI50 was 40 µM in assay [1]; > 100 µM in assay [2]; 91 µM in assay [3]; 47 µM in assay [4]; 74 µM in assay [5]; 26 µM in assay [6].

Turning to `CSCO[C@H]1C=C2CCN3Cc4cc5c(cc4[C@H]([C@@H]1O)[C@@H]23)OCO5`, the GI50 in assay [1] is 51 µM; in assay [2], 86 µM; in assay [3] it was > 100 µM; in assay [4] it was > 100 µM; in assay [5], 70 µM; in assay [6], 60 µM.

Regarding `COCO[C@H]1[C@H]2c3cc4c(cc3CN3CCC(=C[C@@H]1OCOC)[C@H]23)OCO4`, the concentration for 50% growth inhibition (GI50) in assay [1] is 31 µM; in assay [2], > 100 µM; in assay [3] it was 78 µM; in assay [4], 53 µM; in assay [5] it was 55 µM; in assay [6] it was 33 µM.

Turning to `COCO[C@H]1C=C2CCN3Cc4cc5c(cc4[C@H]([C@@H]1O)[C@@H]23)OCO5`, the GI50 in assay [1] was 55 µM; in assay [2] it was > 100 µM; in assay [3], 85 µM; in assay [4], 48 µM; in assay [5], 85 µM; in assay [6], 35 µM.

On to `C1=C2CCN3Cc4cc5c(cc4[C@H]([C@H](OC[C@@H]4CO4)[C@H]1OC[C@@H]1CO1)[C@@H]23)OCO5`, for which the GI50 is 70 µM in assay [1]; 44 µM in assay [2]; 70 µM in assay [3]; 44 µM in assay [4]; 77 µM in assay [5]; 39 µM in assay [6].

On to `O[C@H]1[C@H]2c3cc4c(cc3CN3CCC(=C[C@@H]1OC[C@@H]1CO1)[C@H]23)OCO4`, for which the concentration for 50% growth inhibition (GI50) in assay [1] is 51 µM; in assay [2] it was > 100 µM; in assay [3] it was > 100 µM; in assay [4] it was 49 µM; in assay [5], > 100 µM; in assay [6], 54 µM.

Regarding `C1=C2CCN3Cc4cc5c(cc4[C@H]([C@H](OCc4cccnc4)[C@H]1OCc1cccnc1)[C@@H]23)OCO5`, the GI50 was 85 µM in assay [1]; > 100 µM in assay [2]; > 100 µM in assay [3]; 87 µM in assay [4]; 88 µM in assay [5]; 72 µM in assay [6].

For the compound `O[C@H]1[C@H]2c3cc4c(cc3CN3CCC(=C[C@@H]1OCc1cccnc1)[C@H]23)OCO4`, the GI50 in assay [1] was 66 µM; in assay [2], > 100 µM; in assay [3], 81 µM; in assay [4], 75 µM; in assay [5], 80 µM; in assay [6], 40 µM.

In the case of `C=CCCO[C@H]1C=C2CCN3Cc4cc5c(cc4[C@H]([C@@H]1O)[C@@H]23)OCO5`, the GI50 in assay [1] stood at 21 µM; in assay [2], 67 µM; in assay [3], 42 µM; in assay [4], 39 µM; in assay [5] it was 7.7 µM; in assay [6] it was 11 µM.

For `C#CCCCO[C@H]1[C@H]2c3cc4c(cc3CN3CCC(=C[C@@H]1OCCCC#C)[C@H]23)OCO4`, the GI50 in assay [1] was determined as 17 µM; in assay [2], 32 µM; in assay [3], 25 µM; in assay [4], 7.1 µM; in assay [5], 22 µM; in assay [6] it was 1.3 µM.

On to `C#CCCCO[C@H]1C=C2CCN3Cc4cc5c(cc4[C@H]([C@@H]1O)[C@@H]23)OCO5`, for which the GI50 worked out at 2.6 µM in assay [1]; 69 µM in assay [2]; 19 µM in assay [3]; 4.2 µM in assay [4]; 21 µM in assay [5]; 0.6 µM in assay [6].

In the case of `C#CCCCCO[C@H]1[C@H]2c3cc4c(cc3CN3CCC(=C[C@@H]1OCCCCC#C)[C@H]23)OCO4`, the concentration for 50% growth inhibition (GI50) was determined as 10 µM in assay [1]; 29 µM in assay [2]; 16 µM in assay [3]; 6.8 µM in assay [4]; 16 µM in assay [5]; 2.8 µM in assay [6].

Regarding `C#CCCCCO[C@H]1C=C2CCN3Cc4cc5c(cc4[C@H]([C@@H]1O)[C@@H]23)OCO5`, the GI50 worked out at 34 µM in assay [1]; 55 µM in assay [2]; 49 µM in assay [3]; 34 µM in assay [4]; 32 µM in assay [5]; 11 µM in assay [6].

Turning to `CC(C)[Si](O[C@H]1[C@H]2c3cc4c(cc3CN3CCC(=C[C@@H]1O)[C@H]23)OCO4)(C(C)C)C(C)C`, the GI50 is 9.5 µM in assay [1]; 24 µM in assay [2]; 24 µM in assay [3]; 20 µM in assay [4]; 23 µM in assay [5]; 15 µM in assay [6].

Turning to `C#CCCCO[C@H]1C=C2CCN3Cc4cc5c(cc4[C@H]([C@@H]1O[Si](C(C)C)(C(C)C)C(C)C)[C@@H]23)OCO5`, the GI50 in assay [1] was determined as 9 µM; in assay [2] it was 40 µM; in assay [3] it was 32 µM; in assay [4], 16 µM; in assay [5] it was 31 µM; in assay [6] it was 5.9 µM.

For the compound `C#CCCCCO[C@H]1C=C2CCN3Cc4cc5c(cc4[C@H]([C@@H]1O[Si](C(C)C)(C(C)C)C(C)C)[C@@H]23)OCO5`, the GI50 in assay [1] was 8.7 µM; in assay [2] it was 23 µM; in assay [3], 25 µM; in assay [4] it was 13 µM; in assay [5], 19 µM; in assay [6], 4.2 µM.

As for `C#CCCCCO[C@H]1[C@H]2c3cc4c(cc3CN3CCC(=C[C@@H]1O[Si](C(C)C)(C(C)C)C(C)C)[C@H]23)OCO4`, the GI50 in assay [1] is 6.4 µM; in assay [2], 35 µM; in assay [3] it was 26 µM; in assay [4], 24 µM; in assay [5] it was 28 µM; in assay [6], 21 µM.

The GI50 is the concentration giving 50% growth inhibition.

The values are drawn from ChEMBL document CHEMBL3112496, “C1,C2-ether derivatives of the Amaryllidaceae alkaloid lycorine: retention of activity of highly lipophilic analogues against cancer cells” (Bioorg Med Chem Lett, 2014).
